Consider eleven molecules from patent US20230082430A1 (C4 Therapeutics, Inc., priority 2019, published 2023).

Broadly, the IC50 is the concentration needed to halve the response being measured.

A value given as a limit tells only on which side of the number the result lay.

The subject of the first test is NCIH929.1 cells. The test can be described thus: Cell viability assay for Table 2 (CellTiter-Glo 2.0, ATP quantification, 96 hr). The following applies: 96 h, NCIH929.1 cell viability, 96 hr, top concentration 1 μM, 14 points half log titration; read-out: IC50. Type of test: cell-based. From the text:
Cell Viability Assay for Table 2
CellTiter-Glo® 2.0 Assay was purchased from Promega (Madison, Wis., USA). NCIH929.1 cell line was purchased from ATCC (Manassas, Va., USA). Cell culture flasks and 384-well microplates were acquired from VWR (Radnor, Pa., USA).
(In ATP-based viability assays light output follows the ATP content of the culture.)
As to `CC1(C(=O)N2CCC(n3cc(Cc4cnc5c6c(cccc46)C(=O)N5C4CCC(=O)NC4=O)cn3)CC2)CCC1` (centres unmarked) [Compound 289, 3-[20-[[1-[1-(1-methylcyclobutanecarbonyl)-4-piperidyl]pyrazol-4-yl]methyl]-26-oxo-30,35-diazatricyclododeca-1,3(18),5(20),17(21),22(30)-pentaen-35-yl]piperidine-2,6-dione], the IC50 was less than 100 nM.

For the molecule `O=C1CCC(N2C(=O)c3cccc4c(Cc5ccc(CN6CCN(c7ccccc7)CC6)cc5)ccc2c34)C(=O)N1` (centres unmarked) [Compound 210, 3-(2-oxo-6-(4-((4-phenylpiperazin-1-yl)methyl)benzyl)benzo[cd]indol-1(2H)-yl)piperidine-2,6-dione], the half-maximal inhibitory concentration (IC50) was less than 1 nM.

Regarding `CC1(n2cc(Cc3ccc4c5c(cccc35)C(=O)N4C3CCC(=O)NC3=O)cn2)CCN(C(=O)C2CCN(c3ccccn3)CC2)CC1` (centres unmarked) [Compound 272, 3-[6-[[1-[4-methyl-1-[1-(2-pyridyl)piperidine-4-carbonyl]-4-piperidyl]pyrazol-4-yl]methyl]-2-oxo-benzo[cd]indol-1-yl]piperidine-2,6-dione], the half-maximal inhibitory concentration (IC50) is less than 1 nM.

On to `N#CC1(CN2CCC(n3cc(Cc4ccc5c6c(cccc46)C(=O)N5C4CCC(=O)NC4=O)cn3)CC2)CC1` (centres unmarked) [Compound 199, 1-[[4-[4-[[1-(2,6-dioxo-3-piperidyl)-2-oxo-benzo[cd]indol-6-yl]methyl]pyrazol-1-yl]-1-piperidyl]methyl]cyclopropanecarbonitrile], for which the IC50 is less than 1 nM.

In the case of `O=C1CCC(N2C(=O)c3cccc4c(Cc5cnn(C6CCN(C(=O)C78CCCC(C7)C8)CC6)c5)ccc2c34)C(=O)N1` (centres unmarked) [Compound 50, 3-(6-((1-(1-(bicyclo[3.1.1]heptane-1-carbonyl)piperidin-4-yl)-1H-pyrazol-4-yl)methyl)-2-oxobenzo[cd]indol-1(2H)-yl)piperidine-2,6-dione], the 50% inhibitory concentration (IC50) was less than 1 nM.

`O=C1CCC(N2C(=O)c3cccc4c(Cc5ccc(CN6CCC7(CCCC7)CC6)cc5)ccc2c34)C(=O)N1` (centres unmarked) [Compound 225, 3-(6-(4-((8-azaspiro[4.5]decan-8-yl)methyl)benzyl)-2-oxobenzo[cd]indol-1(2H)-yl)piperidine-2,6-dione]: the IC50 is less than 1 nM.

In the case of `O=C1CCC(N2C(=O)c3cccc4c(Cc5ccc(CN6CCC7(CCCO7)CC6)nc5)ccc2c34)C(=O)N1` (racemic) [Compound 268, 3-[6-[[6-(1-oxa-8-azaspiro[4.5]decan-8-ylmethyl)-3-pyridyl]methyl]-2-oxo-benzo[cd]indol-1-yl]piperidine-2,6-dione], the IC50 is less than 1 nM.

Regarding `CC1(n2cc(Cc3ccc4c5c(cccc35)C(=O)N4C3CCC(=O)NC3=O)cn2)CCN(C(=O)C23CC(CO2)C3)CC1` (centres unmarked) [Compound 90, 3-(6-((1-(1-(2-oxabicyclo[2.1.1]hexane-1-carbonyl)-4-methylpiperidin-4-yl)-1H-pyrazol-4-yl)methyl)-2-oxobenzo[cd]indol-1(2H)-yl)piperidine-2,6-dione], the IC50 was less than 1 nM.

For the molecule `O=C1CCC(N2C(=O)c3cccc4c(Cc5ccc(CN6CCN(c7ccc(Cl)cc7F)CC6)cc5)ccc2c34)C(=O)N1` (single isomer, unassigned) [Compound 254, 3-[6-[[4-[[4-(4-chloro-2-fluoro-phenyl)piperazin-1-yl]methyl]phenyl]methyl]-2-oxo-benzo[cd]indol-1-yl]-piperidine-2,6-dione], the IC50 is less than 1 nM.

Turning to `O=C1CCC(N2C(=O)c3cccc4c(Cc5cnn(C6CCN(C7CCC78CCC8)CC6)c5)ccc2c34)C(=O)N1` (single isomer, unassigned) [Compound 244, 3-{2-Oxo-6-[1-(1-spiro[3.3]hept-1-yl-piperidin-4-yl)-1H-pyrazol-4-ylmethyl]-2H-benzo[cd]indol-1-yl}-piperidine-2,6-dione], the half-inhibitory concentration (IC50) was less than 1 nM.

The same test, now with this note: NCIH929.1 cell viability, 96 hr, top concentration 1 μM, 14 points half log titration; read-out: IC50.
`CC(C1CCC1)N1CCC(n2cc(Cc3ccc4c5c(cccc35)C(=O)N4C3CCC(=O)NC3=O)cn2)CC1` (single isomer, unassigned) [Compound 281, 3-[6-[[1-[1-[1-cyclobutylethyl]-4-piperidyl]pyrazol-4-yl]methyl]-2-oxo-benzo[cd]indol-1-yl]piperidine-2,6-dione]: the IC50 is less than 1 nM.
